Assays:
[1] = target: Tyrosine-protein kinase Lyn (Homo sapiens) (UniProt P07948); test: Inhibition of recombinant human full-length N-terminal His-tagged LYN-B expressed in baculovirus expression system at 500 nM by Z-LYTE assay relative to control
PBMC = test: Inhibition of IL-5 secretion in anti-human CD3 antibody/anti-human CD28 antibody/IL23-stimulated human PBMC after 48 hrs by ELISA; type: functional, cell-based
[2] = target: Epidermal growth factor receptor (Homo sapiens) (UniProt P00533); test: Inhibition of recombinant human GST-tagged wild-type EGFR cytoplasmic domain (668 to 1210 residues) expressed in baculovirus expression system at 500 nM by Z-LYTE assay relative to control
[3] = target: Receptor tyrosine-protein kinase erbB-4 (Homo sapiens) (UniProt Q15303); test: Inhibition of recombinant humans GST-tagged ERBB4 cytoplasmic domain expressed in baculovirus expression system at 500 nM by Z-LYTE assay relative to control
Sequence of Receptor tyrosine-protein kinase erbB-4 (Homo sapiens) (Q15303 whole entry, the tested form may be a part): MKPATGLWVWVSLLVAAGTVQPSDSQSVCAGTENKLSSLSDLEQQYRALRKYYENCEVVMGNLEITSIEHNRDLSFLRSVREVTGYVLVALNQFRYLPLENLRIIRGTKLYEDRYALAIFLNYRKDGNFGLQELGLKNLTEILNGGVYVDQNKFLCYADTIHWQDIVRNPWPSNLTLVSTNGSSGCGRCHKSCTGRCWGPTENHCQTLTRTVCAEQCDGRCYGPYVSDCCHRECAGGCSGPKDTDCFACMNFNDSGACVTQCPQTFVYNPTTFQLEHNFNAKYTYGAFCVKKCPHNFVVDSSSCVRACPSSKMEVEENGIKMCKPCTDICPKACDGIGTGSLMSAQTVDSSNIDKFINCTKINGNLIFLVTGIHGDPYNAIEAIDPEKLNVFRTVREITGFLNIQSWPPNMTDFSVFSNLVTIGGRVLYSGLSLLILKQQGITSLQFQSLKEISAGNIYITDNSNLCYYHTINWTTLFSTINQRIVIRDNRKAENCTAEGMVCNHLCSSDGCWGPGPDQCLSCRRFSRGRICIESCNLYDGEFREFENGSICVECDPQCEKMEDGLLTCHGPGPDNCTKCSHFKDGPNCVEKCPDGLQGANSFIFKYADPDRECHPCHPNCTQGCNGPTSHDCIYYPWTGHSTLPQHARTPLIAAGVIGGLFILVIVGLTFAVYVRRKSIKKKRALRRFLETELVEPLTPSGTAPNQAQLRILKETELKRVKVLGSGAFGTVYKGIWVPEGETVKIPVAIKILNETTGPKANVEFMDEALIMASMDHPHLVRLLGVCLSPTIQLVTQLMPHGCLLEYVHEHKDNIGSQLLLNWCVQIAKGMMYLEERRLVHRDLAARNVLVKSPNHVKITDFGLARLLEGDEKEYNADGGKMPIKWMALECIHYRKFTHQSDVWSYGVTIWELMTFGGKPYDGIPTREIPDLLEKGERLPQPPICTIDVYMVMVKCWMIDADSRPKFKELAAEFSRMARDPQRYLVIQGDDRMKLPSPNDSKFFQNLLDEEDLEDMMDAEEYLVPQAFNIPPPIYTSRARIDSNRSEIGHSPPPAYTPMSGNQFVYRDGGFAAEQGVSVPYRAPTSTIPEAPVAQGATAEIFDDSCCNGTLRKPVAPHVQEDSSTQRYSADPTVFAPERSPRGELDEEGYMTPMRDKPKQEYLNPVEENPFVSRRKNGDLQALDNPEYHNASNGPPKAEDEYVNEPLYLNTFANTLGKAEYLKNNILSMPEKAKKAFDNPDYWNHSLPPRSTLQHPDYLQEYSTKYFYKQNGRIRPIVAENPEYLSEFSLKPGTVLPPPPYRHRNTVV

[4] = target: Glycogen synthase kinase-3 alpha (Homo sapiens) (UniProt P49840); test: Inhibition of GSK3alpha (unknown origin) at 500 nM by Z-LYTE assay relative to control
Sequence of Glycogen synthase kinase-3 alpha (Homo sapiens) (P49840 2-483 limits assumed): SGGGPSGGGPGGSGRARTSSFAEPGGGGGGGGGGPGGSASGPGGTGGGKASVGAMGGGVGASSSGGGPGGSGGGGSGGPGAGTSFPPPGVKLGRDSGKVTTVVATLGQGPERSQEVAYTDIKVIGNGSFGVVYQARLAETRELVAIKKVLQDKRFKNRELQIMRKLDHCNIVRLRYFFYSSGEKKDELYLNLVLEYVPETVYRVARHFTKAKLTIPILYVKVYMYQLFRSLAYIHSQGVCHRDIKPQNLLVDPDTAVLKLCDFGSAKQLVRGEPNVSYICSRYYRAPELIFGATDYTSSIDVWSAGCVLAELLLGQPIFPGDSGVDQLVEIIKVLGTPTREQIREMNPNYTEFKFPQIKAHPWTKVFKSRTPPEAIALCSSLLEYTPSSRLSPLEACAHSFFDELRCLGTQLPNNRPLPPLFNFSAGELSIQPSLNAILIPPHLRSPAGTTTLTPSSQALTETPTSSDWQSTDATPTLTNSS

[5] = target: T1, Inhibitor of nuclear factor kappa-B kinase subunit epsilon (Homo sapiens) (UniProt Q14164); test: Inhibition of recombinant full-length human GST-tagged IKKepsilon expressed in baculovirus expression system at 500 nM by Z-LYTE assay relative to control
T1 sequence (whole entry): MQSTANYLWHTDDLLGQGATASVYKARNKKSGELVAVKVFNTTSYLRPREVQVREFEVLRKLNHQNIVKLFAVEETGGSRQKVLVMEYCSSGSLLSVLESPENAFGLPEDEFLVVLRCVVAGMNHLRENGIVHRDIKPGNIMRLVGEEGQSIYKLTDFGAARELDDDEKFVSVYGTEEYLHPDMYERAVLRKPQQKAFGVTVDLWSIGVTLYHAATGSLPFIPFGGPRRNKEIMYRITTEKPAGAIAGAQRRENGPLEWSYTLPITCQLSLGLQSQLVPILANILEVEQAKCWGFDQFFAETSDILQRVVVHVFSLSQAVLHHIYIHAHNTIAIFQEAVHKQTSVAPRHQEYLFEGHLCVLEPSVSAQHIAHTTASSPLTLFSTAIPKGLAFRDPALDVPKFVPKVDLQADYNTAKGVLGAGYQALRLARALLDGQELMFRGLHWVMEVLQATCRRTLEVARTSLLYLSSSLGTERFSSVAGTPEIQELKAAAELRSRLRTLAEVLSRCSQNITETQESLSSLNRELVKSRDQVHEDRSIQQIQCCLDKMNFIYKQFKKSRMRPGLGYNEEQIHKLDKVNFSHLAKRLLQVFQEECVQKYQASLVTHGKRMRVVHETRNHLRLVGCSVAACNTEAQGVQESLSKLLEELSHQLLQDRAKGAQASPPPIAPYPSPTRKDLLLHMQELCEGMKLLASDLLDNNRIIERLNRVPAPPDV

[6] = target: T2, Dual specificity mitogen-activated protein kinase kinase 6 (Homo sapiens) (UniProt P52564); test: Inhibition of recombinant human full length His-tagged MKK6 expressed in baculovirus expression system at 500 nM by Z-LYTE assay relative to control
T2 sequence (whole entry): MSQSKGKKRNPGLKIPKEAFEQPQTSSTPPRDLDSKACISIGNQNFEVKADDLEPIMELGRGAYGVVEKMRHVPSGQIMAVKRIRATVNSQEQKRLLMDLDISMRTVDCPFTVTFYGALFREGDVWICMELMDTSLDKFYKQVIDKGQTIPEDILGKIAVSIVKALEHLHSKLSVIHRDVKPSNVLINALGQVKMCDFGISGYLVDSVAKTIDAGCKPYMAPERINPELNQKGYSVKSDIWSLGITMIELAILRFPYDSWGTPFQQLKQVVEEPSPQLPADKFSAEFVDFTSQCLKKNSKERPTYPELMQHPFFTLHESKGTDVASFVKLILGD

[7] = target: Mitogen-activated protein kinase 11 (Homo sapiens) (UniProt Q15759); test: Inhibition of recombinant human full length His-tagged p38-beta expressed in baculovirus expression system at 500 nM by Z-LYTE assay relative to control
Sequence of Mitogen-activated protein kinase 11 (Homo sapiens) (Q15759 whole entry): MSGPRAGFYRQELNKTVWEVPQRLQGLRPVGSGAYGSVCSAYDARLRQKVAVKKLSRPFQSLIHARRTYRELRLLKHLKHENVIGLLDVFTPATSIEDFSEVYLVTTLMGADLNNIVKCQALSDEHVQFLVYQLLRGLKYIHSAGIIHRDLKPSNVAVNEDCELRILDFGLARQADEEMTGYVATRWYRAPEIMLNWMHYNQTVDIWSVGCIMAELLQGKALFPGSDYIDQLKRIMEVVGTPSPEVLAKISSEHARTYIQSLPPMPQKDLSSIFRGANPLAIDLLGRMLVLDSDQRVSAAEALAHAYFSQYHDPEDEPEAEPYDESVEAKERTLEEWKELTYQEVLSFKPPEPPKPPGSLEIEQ

[8] = target: T3, Mitogen-activated protein kinase 12 (Homo sapiens) (UniProt P53778); test: Inhibition of recombinant human full length His-tagged p38-gamma expressed in baculovirus expression system at 500 nM by Z-LYTE assay relative to control
T3 sequence (whole entry): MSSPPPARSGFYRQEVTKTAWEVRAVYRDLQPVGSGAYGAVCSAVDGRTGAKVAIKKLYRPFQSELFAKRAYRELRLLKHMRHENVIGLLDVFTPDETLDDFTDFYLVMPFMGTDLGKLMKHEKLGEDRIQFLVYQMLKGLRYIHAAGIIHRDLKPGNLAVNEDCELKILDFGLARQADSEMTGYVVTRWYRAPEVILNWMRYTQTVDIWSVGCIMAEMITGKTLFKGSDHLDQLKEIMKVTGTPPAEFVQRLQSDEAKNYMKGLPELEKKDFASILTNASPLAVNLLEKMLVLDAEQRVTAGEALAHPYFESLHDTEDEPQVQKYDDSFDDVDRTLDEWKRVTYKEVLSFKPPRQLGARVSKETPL

[9] = target: Platelet-derived growth factor receptor beta (Homo sapiens) (UniProt P09619); test: Inhibition of recombinant human His-tagged PDGFRbeta cytoplasmic domain expressed in baculovirus expression system at 500 nM by Z-LYTE assay relative to control
Sequence of Platelet-derived growth factor receptor beta (Homo sapiens) (P09619 whole entry, the tested form may be a part): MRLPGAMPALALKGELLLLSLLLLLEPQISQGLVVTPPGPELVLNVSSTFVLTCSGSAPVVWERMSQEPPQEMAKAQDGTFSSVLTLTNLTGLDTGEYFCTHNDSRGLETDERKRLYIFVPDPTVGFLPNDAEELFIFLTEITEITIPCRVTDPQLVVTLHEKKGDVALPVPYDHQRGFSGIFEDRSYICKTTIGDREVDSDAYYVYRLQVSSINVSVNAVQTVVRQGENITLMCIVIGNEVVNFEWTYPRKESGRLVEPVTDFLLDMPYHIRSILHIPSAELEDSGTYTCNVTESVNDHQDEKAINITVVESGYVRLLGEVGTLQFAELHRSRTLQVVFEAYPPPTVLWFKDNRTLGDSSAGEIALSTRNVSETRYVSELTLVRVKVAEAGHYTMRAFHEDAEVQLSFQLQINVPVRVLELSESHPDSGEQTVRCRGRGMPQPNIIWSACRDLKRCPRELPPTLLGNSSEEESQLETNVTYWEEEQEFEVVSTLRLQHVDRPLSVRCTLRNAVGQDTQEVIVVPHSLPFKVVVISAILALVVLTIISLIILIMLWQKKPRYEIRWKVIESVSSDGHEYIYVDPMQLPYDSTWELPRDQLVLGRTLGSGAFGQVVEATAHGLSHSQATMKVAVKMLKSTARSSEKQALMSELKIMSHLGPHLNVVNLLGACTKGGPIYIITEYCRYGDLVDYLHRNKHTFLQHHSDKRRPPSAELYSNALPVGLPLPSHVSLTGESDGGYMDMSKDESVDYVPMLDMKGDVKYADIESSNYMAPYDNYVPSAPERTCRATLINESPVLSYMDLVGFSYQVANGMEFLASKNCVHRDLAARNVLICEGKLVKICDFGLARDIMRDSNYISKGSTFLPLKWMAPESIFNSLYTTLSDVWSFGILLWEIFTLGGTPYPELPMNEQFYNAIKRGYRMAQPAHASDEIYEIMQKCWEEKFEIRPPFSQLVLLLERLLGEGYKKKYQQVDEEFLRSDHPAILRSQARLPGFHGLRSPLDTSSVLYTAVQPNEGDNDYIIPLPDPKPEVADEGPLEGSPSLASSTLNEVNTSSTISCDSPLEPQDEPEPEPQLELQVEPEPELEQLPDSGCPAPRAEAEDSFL

[10] = target: PI3-kinase p110-alpha/p85-alpha (Homo sapiens) (UniProt P27986+P42336); test: Inhibition of recombinant full length human His-tagged PI3K p110alpha/p85alpha at 500 nM by Z-LYTE assay relative to control; type: protein-complex assay
[11] = target: PI3-kinase p110-delta/p85-alpha (Homo sapiens) (UniProt P27986+O00329); test: Inhibition of PI3K p110delta/p85alpha (unknown origin) at 500 nM by Z-LYTE assay relative to control; type: protein-complex assay
[12] = target: Protein kinase C theta type (Homo sapiens) (UniProt Q04759); test: Inhibition of recombinant full length human His-tagged PKCtheta expressed in baculovirus expression system at 500 nM by Z-LYTE assay relative to control
[13] = target: Proto-oncogene tyrosine-protein kinase receptor Ret (Homo sapiens) (UniProt P07949); test: Inhibition of recombinant human GST-tagged RET cytoplasmic domain expressed in baculovirus expression system at 500 nM by Z-LYTE assay relative to control
Sequence of Proto-oncogene tyrosine-protein kinase receptor Ret (Homo sapiens) (P07949 whole entry, the tested form may be a part): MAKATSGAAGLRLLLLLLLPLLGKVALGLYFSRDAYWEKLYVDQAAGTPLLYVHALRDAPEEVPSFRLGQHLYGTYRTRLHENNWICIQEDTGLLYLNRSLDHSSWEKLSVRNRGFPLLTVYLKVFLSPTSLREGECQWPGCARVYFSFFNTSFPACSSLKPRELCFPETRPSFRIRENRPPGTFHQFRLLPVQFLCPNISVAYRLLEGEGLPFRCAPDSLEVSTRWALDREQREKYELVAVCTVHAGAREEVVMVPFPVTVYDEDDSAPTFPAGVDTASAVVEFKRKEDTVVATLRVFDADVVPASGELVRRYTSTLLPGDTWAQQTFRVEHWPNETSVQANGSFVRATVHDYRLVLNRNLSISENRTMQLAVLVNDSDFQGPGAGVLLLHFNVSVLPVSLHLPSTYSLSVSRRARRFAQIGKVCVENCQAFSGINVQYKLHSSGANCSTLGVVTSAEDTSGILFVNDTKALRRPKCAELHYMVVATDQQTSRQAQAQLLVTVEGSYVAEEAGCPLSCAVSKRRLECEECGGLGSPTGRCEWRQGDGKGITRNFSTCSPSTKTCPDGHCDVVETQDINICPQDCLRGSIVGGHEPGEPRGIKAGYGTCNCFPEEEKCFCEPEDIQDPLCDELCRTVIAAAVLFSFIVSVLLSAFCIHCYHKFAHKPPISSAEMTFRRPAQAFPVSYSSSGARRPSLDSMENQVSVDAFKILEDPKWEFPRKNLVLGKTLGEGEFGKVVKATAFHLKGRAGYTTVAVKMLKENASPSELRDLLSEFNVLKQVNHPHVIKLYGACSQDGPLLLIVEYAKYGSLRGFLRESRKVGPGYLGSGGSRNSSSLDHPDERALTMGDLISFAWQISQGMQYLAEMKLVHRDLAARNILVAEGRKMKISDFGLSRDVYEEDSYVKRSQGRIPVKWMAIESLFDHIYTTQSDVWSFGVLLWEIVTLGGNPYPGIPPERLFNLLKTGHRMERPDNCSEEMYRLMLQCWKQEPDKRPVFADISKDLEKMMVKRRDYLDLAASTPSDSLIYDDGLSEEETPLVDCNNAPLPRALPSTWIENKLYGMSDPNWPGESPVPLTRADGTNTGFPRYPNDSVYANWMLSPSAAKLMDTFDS

[14] = target: Nuclear receptor ROR-gamma (Homo sapiens, UniProt P51449); test: Antagonist activity at GAL4-DBD fused human RORgamma LBD expressed in HEK293 cells after 18 hrs by luciferase reporter gene assay; type: cell-based
[15] = target: Luciferin 4-monooxygenase (Photinus pyralis, UniProt P08659); test: Inhibition of firefly luciferase activity expressed in HEK293 cells after 18 hrs by luminescence assay; type: cell-based

Sequence of Tyrosine-protein kinase Lyn (Homo sapiens) (P07948 2-512 limits assumed): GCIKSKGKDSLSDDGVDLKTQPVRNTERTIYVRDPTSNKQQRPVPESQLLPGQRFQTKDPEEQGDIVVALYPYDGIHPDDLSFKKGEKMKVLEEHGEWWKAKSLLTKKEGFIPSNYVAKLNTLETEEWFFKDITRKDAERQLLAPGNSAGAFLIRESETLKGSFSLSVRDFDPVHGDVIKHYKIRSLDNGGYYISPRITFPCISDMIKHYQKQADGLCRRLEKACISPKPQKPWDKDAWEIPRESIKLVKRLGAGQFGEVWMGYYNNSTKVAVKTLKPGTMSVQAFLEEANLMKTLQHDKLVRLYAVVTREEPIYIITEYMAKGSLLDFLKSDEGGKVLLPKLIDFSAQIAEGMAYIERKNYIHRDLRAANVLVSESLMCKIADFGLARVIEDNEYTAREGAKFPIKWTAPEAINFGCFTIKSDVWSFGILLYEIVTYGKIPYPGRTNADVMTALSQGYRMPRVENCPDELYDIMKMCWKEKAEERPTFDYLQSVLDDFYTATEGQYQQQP

OC[C@@H](Nc1ncnc2sc(-c3ccc(O)cc3)cc12)c1ccccc1
inhibition [1]: 7% | IC50 (PBMC): 13 to 13.1 µM | inhibition [2]: 99% | inhibition [3]: 20% | inhibition [4]: 9% | inhibition [5]: -1% | inhibition [6]: 11% | inhibition [7]: 4% | inhibition [8]: 0% | inhibition [9]: 1% | inhibition [10]: 16% | inhibition [11]: 0% | inhibition [12]: -7% | inhibition [13]: 12%

OCc1ccc(-c2cc3c(N[C@H](CO)c4ccccc4)ncnc3[nH]2)cc1
inhibition [1]: 70% | IC50 (PBMC): 1.1 µM | inhibition [3]: 71% | inhibition [4]: 4% | inhibition [5]: 3% | inhibition [6]: 3% | inhibition [7]: 6% | inhibition [8]: 12% | inhibition [9]: 7% | inhibition [11]: 2% | inhibition [12]: -2% | inhibition [13]: 41%

CCC(=O)Nc1ccc(-c2c[nH]c3ncnc(N[C@H](C)c4ccccc4)c23)cc1
inhibition [1]: 27% | IC50 [14]: 4.9 µM | IC50 [15]: 9.1 µM | inhibition [2]: 98% | inhibition [3]: 12% | inhibition [4]: 14% | inhibition [5]: -2% | inhibition [6]: 8% | inhibition [7]: 2% | inhibition [8]: 10% | inhibition [9]: 5% | inhibition [11]: 13% | inhibition [12]: 6% | inhibition [13]: 23%

CN(C)CCn1cc(-c2cccc(O)c2)c2c(N)ncnc21
inhibition [1]: 49% | IC50 [14]: > 10 µM | IC50 [15]: > 10 µM | inhibition [2]: 4% | inhibition [3]: 3% | inhibition [4]: 3% | inhibition [5]: 3% | inhibition [6]: 5% | inhibition [7]: 2% | inhibition [8]: 10% | inhibition [9]: 5% | inhibition [12]: 8% | inhibition [13]: 93%
